Data as given in patent US20240358790A1, “COMPOSITIONS AND METHODS FOR TREATING AUTOIMMUNITY, INCLUDING AUTOIMMUNITY ASSOCIATED WITH CANCER AND CANCER THERAPY” (Interk Peptide Therapeutics Limited, priority 2021, published 2024).
Non-standard residues stand in square brackets, D forms with d. Residues, ends and D or L forms follow the SMILES beside them. No end group written: not given here. ξ: configuration not given here. ξGly(decyl) = CCCCCCCCCCC(N)C(=O)O; 2Adod = 2-aminododecanoic acid

Tests used:
[1] = tested on: IL-2; assay: IL-2 ELISA, anti-CD3/anti-CD28 stimulated isolated CD3+ T cells; assay type: cell-based, human; conditions: 72 hrs
[2] = PET-CT uptake of Cu64-labelled NOTA-peptide in lung and blood after SC, IP, oral gavage; assay type: in vivo; conditions: 200 ug SC/IP and 1 mg OG, mice
Description: For FIG. 1d, 1,4,7-Triazacyclononane-1,4,7-triacetic acid (NOTA) conjugated peptides were acquired from Auspep, reconstituted in deionised water at 10 mg/mL and used without further purification. Peptides were incubated with ^64Cu at 1000-fold excess of peptide in 0.1 M pH 5.5 ammonium acetate buffer for 45 minutes at 37° C. 1 μL Samples of each solution were taken and mixed 1:1 with 50 mM EDTA. EDTA incubated sample or neat solution was spotted on TLC paper (Agilent iTLC-SG Glass microfiber chromatography paper impregnated with silica gel) and run with 50:50 H2O:ethanol. Detection of radiolabelled species migration was then achieved by imaging on a Bruker In Vivo MS FX Pro imaging system using a radioisotopic phosphor screen. Control experiments were conducted to monitor the elution profile of free ^64Cu and ^64Cu bound to EDTA for quality control. […]
The PET Images were reconstructed using an ordered-subset expectation maximization (OSEM2D) algorithm and analysed using the Inveon Research Workplace software (IRW 4.1) (Siemens) which allows fusion of CT and PET images and definition of regions of interest (ROIs). […] Activity concentrations were then expressed as percent of the decay-corrected injected activity per cm^3 of tissue that can be approximate as percentage injected dose/g (% ID/g). […]

[3] = tested on: B16-F10 melanoma cells; assay: SRB proliferation assay, B16-F10 melanoma cells; assay type: cell-based; conditions: 2.5 μM, 72 h
Description: (§1) In addition, doxorubicin at 2.5 μM was tested in 5 replicate wells as a positive control. Cells were cultured for a further 72 h in the presence of drug or control before the cell culture medium was removed and the attached cells fixed in ice-cold trichloroacetic acid. […] Each experiment was performed on two independent occasions (biological replicates) and data were analysed in GraphPad Prism 9 using non-linear fit of log (inhibitor) versus response.

[4] = tested on: Lewis Lung Cancer cells; assay: SRB proliferation assay, Lewis Lung Cancer cells; assay type: cell-based; conditions: 2.5 μM, 72 h
Description: as §1

[5] = target: c-Src (Homo sapiens, UniProt P12931); assay: c-Src kinase activity assay ([γ33P-ATP], filtermat); assay type: biochemical
Description: c-Src, Fyn, Hck is incubated with 8 mM MOPS pH 7.0, 0.2 mM EDTA, 250 μM KVEKIGEGTYGVVYK (Cdc2 peptide), 10 mM MgAcetate and [γ33P-ATP] (specific activity approx. 500 cpm/pmol, concentration as required). The reaction is initiated by the addition of the MgATP mix. After incubation for 40 minutes at room temperature, the reaction is stopped by the addition of 3% phosphoric acid solution. 10 μL of the reaction is then spotted onto a P30 filtermat and washed three times for 5 minutes in 75 mM phosphoric acid and once in methanol prior to drying and scintillation counting.

[6] = target: Lck (Homo sapiens, UniProt P06239); assay: Lck kinase activity assay ([γ33P-ATP], filtermat); assay type: biochemical
Chain of Lck (P06239 whole entry): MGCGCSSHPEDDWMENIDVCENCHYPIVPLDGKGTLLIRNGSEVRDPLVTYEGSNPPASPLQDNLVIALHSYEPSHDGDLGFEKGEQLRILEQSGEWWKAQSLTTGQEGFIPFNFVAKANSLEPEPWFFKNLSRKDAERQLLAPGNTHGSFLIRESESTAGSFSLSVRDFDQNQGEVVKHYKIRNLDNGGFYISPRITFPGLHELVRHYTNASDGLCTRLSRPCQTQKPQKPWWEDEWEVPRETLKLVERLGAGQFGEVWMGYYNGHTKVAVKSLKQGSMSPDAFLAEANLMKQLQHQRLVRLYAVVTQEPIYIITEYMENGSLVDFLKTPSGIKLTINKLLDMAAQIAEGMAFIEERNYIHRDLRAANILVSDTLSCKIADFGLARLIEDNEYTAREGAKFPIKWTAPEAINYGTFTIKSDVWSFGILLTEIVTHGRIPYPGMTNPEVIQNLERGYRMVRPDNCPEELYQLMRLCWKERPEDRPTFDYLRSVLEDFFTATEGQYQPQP
Description: Lck is incubated with 50 mM Tris pH 7.5, 0.1 mM EGTA, 0.1 mM Na3VO4, 250 μM KVEKIGEGTYGWYK (Cdc2 peptide), 10 mM Magnesium acetate and [γ33P-ATP] (specific activity approx. 500 cpm/pmol, concentration as required). The reaction is initiated by the addition of the Mg/ATP mix. After incubation for 40 minutes at room temperature, the reaction is stopped by the addition of phosphoric acid to a concentration of 0.5%. 10 μL of the reaction is then spotted onto a P30 filtermat and washed four times for 4 minutes in 0.425% phosphoric acid and once in methanol prior to drying and scintillation counting.”

[7] = tested on: CD28; assay: CD28 expression on CD4+ T cells of stimulated PBMCs; assay type: cell-based, human; conditions: PBMCs + anti-CD3, 72 hrs
Description: FIG. 7: RSKAKNPLYR-(2Adod)4-NH2 increases CD28 levels on T cells. […] Data presented indicates the mean respective expression in CD4+ T cell populations in response to peptide treatment, +/−SEM, n=4. Data was analysed by two-way ANOVA with Dunnett's post test, *P<0.05, **P<0.01, ***P<0.001, ****P<0.0001. *** indicates all bars under the line are significant compared to vehicle. Red dotted line indicates unstimulated PBMC expression.
Because full activation of MAP kinases requires the presence of the TCR co-receptor, the present inventors sought to examine the expression of CD28 on T cells.

[8] = target: MAP4K1 (HPK1) (Homo sapiens, UniProt Q92918); assay: MAP4K1 (HPK1) kinase activity; assay type: biochemical
Chain of MAP4K1 (HPK1) (Q92918 whole entry): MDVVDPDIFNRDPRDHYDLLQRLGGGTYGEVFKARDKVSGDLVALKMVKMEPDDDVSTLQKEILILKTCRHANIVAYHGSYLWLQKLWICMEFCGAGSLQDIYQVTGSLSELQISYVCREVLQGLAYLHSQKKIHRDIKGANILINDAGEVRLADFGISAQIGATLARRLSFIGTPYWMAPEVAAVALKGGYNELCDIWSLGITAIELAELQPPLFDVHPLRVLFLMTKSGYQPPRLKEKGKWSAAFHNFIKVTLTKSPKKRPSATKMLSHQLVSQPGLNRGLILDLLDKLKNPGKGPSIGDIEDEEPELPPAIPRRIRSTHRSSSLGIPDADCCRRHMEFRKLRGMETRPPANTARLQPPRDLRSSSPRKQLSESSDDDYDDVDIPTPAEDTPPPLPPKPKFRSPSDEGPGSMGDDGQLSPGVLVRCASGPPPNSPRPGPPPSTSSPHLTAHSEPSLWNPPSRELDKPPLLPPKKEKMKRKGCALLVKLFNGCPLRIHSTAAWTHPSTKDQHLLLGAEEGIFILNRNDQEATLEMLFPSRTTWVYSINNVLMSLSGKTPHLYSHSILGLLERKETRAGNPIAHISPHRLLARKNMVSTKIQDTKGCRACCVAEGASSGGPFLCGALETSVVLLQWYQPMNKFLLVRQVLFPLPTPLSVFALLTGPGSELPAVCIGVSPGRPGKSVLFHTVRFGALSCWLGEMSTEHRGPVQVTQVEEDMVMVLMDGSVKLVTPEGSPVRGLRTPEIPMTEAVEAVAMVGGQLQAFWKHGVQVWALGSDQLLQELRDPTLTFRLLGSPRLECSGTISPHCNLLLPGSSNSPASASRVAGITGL

[9] = tested on: exhausted CD4+ cells; assay: IL-2 from exhausted CD4+ cells upon restimulation (MBP-Tracker mouse splenocytes); assay type: cell-based, mice; conditions: 72 hrs, multiplex immunoassay
Description: Supernatants were collected after 72 hrs in culture to assess IL-2 cytokine production measured by multiplex immunoassay. Data are presented as mean+/−SEM from 4 biological replicates normalised to vehicle control (0). **P<0.01, Non-parametric one way ANOVA (Freidman) with Dunns post-test was used to compare groups at each dose level to lowest level (0.08 μM).
T examine the ability of peptides comprising D-amino acids induce low levels of IL-2, IL-2 expression on exhausted CD4+ cells upon restimulation was examined. In brief, a single spleen per experiment was removed from MBP-Tracker mice and processed to generate a single cell suspension of splenocytes. Cells were resuspended at 3×10^6/mL and stimulated with WT-MBP (control, non-exhausted cells) or APL-MBP (to generate exhausted cells). Cells were stimulated for 72 hr. Following stimulation, T cells were purified by ficoll density gradient and subsequently re-plated at 2×10^6/mL in 20U/mL IL-2 for four days. After 4 days, cells were collected, resuspended (4×10^5/mL, final 2×10^4 per well) and restimulated using irradiated APC (from B10PL×C57BL/6 mice, 4×10^6/mL, final 2×10^5 per well) a single dose of APL-MBP peptide, together with test or reference substance or appropriate controls for 72 hrs. […]

With `COc1cc(-c2nn([C@H]3CC[C@H](N4CCN(C(C)=O)CC4)CC3)c3ncnc(N)c23)ccc1NC(=O)c1cc2ccccc2n1C` [A-770041] the “enhancement of IL-2 production, Lck inhibitor compared with IK14004” value [1] was “ten-fold greater enhancement” and the “increase in IL-2 secretion above vehicle control” value ([1]; A-770041 at 100 nM) was 300%.
For `CCCCCCCCCCC(NC(=O)C(CCCCCCCCCC)NC(=O)C(CCCCCCCCCC)NC(=O)C(CCCCCCCCCC)NC(=O)[C@H](CCCNC(=N)N)NC(=O)[C@H](Cc1ccc(O)cc1)NC(=O)[C@H](CC(C)C)NC(=O)[C@@H]1CCCN1C(=O)[C@H](CC(N)=O)NC(=O)[C@H](CCCCN)NC(=O)[C@H](C)NC(=O)[C@H](CCCCN)NC(=O)[C@H](CO)NC(=O)[C@@H](N)CCCNC(=N)N)C(N)=O` (some centres unmarked) [IK14004, RSKAKNPLYR-(2Adod)4-NH2] (H-RSKAKNPLYR[ξGly(decyl)][ξGly(decyl)][ξGly(decyl)][ξGly(decyl)]-NH2; N-terminus assumed), the tolerability of doses [2] was “Well tolerated”.
For `COc1cccc2c1C(=O)c1c(O)c3c(c(O)c1C2=O)C[C@@](O)(C(=O)CO)C[C@@H]3O[C@H]1C[C@H](N)[C@H](O)[C@H](C)O1` [doxorubicin], the “kill in vitro, B16-F10 melanoma cells” value [3] was 100% and the “kill in vitro, Lewis Lung Cancer cells” value [4] was 100%.
For RSKAKNPLYR [IK14000], the “effect on c-Src activity” value [5] was “inhibits c-Src” and the “effect on Lck activity” value [6] was “neither the 10 mer RSKAKNPLYR (designated IK14000) nor 4 lipidic peptide residues designated IK00041 activated Lck”.
In the case of “RSKAKNPLYR-(2Adod)3-NH2 (RSKAKNPLYR-{2Adod-2Adod-2Adod-NH2}) [IK14003, … conjugated to three 2-amino dodecanoic acid residues]”, the “effect on c-Src activity” value [5] is reported as “stimulated c-Src activity above 1 uM”.
In the case of “rskaknplyr-(2Adod)4-NH2 ([dR][dS][dK][dA][dK][dN][dP][dL][dY][dR]-{2Adod-2Adod-2Adod-2Adod-NH2}) […-(2Adod)4-NH2 comprising D amino acids]”, the CD28 levels [7] is reported as “increased CD28 levels”, the “effect on MAP4K1 (HPK1) kinase activity” value [8] is reported as “inhibits” and the “IL-2 expression on exhausted CD4+ cells upon restimulation” value [9] is reported as “increases IL-2 expression”.
